Data reported in ChEMBL document CHEMBL2057161, “Synthesis and evaluation of nitric oxide-releasing DDB derivatives as potential Pgp-mediated MDR reversal agents in MCF-7/Adr cells” (Bioorg Med Chem Lett, 2012).
Activity calls are given as the source filed them. No cut-off for these calls is given here.

Key:
[1] = molecular target: T1, ATP-dependent translocase ABCB1 (Homo sapiens, UniProt P08183); assay: Inhibition of P-glycoprotein overexpressed in human MCF7/ADR cells assessed as increase in doxorubicin accumulation at 25 uM incubated for 1.5 hrs prior to doxorubicin treatment measured after 1.5 hrs by HPLC analysis; assay type: cell-based; details: nci/adr-res
HepG2 = assay: Antiproliferative activity against human HepG2 cells after 48 hrs by MTT assay; assay type: functional, cell-based; details: HepG2, 48 h
[2] = molecular target: T1, ATP-dependent translocase ABCB1; assay: Inhibition of P-glycoprotein in human MCF7/ADR cells assessed as potentiation of doxorubicin antiproliferative activity after 48 hrs by MTT assay; assay type: cell-based; details: nci/adr-res
[3] = molecular target: T1, ATP-dependent translocase ABCB1; assay: Inhibition of P-glycoprotein in human MCF7 assessed as increase in doxorubicin accumulation at 25 uM incubated for 1.5 hrs prior to doxorubicin treatment measured after 1.5 hrs by HPLC analysis; details: mcf7, 1.5 h
NCI/ADR-RES [4] = assay: Induction of nitric oxide release in human MCF7/ADR cells at 25 uM by Griess method; assay type: functional, cell-based
[5] = molecular target: T1, ATP-dependent translocase ABCB1; assay: Inhibition of P-glycoprotein overexpressed in human MCF7/ADR cells assessed as increase in doxorubicin accumulation at 25 uM incubated for 1.5 hrs prior to doxorubicin treatment measured after 1.5 hrs by HPLC analysis in presence of hemoglobin; assay type: cell-based; details: nci/adr-res
[6] = molecular target: T1, ATP-dependent translocase ABCB1; assay: Inhibition of P-glycoprotein in human MCF7 assessed as increase in doxorubicin accumulation at 25 uM incubated for 1.5 hrs prior to doxorubicin treatment measured after 1.5 hrs by HPLC analysis in presence of hemoglobin; details: mcf7, 1.5 h
[7] = molecular target: T1, ATP-dependent translocase ABCB1; assay: Inhibition of P-glycoprotein overexpressed in human Caco2 cells assessed as increase in digoxin accumulation at 5 to 25 uM incubated for 1.5 hrs prior to digoxin treatment measured after 1.5 hrs by LC/MS/MS analysis in presence of hemoglobin; assay type: cell-based; details: caco-2, 1.5 h
[8] = molecular target: T1, ATP-dependent translocase ABCB1; assay: Inhibition of P-glycoprotein overexpressed in human Caco2 cells assessed as increase in digoxin permeability at 25 uM incubated for 90 mins prior to digoxin treatment measured after 90 mins by LC/MS/MS analysis; assay type: cell-based; details: caco-2, 1.5 h
[9] = molecular target: T1, ATP-dependent translocase ABCB1; assay: Inhibition of P-glycoprotein overexpressed in human Caco2 cells assessed as decrease in digoxin efflux at 25 uM incubated for 90 mins prior to digoxin treatment measured after 90 mins by LC/MS/MS analysis; assay type: cell-based; details: caco-2, 1.5 h
[10] = Downregulation of doxorubicin-induced P-glycoprotein expression in human MCF7/ADR cells at 25 uM after 48 hrs by Western blot analysis; assay type: functional, cell-based; details: NCI/ADR-RES
MCF7 = assay: Antiproliferative activity against human MCF7 up to 25 uM cells after 48 hrs by MTT assay; assay type: functional, cell-based
NCI/ADR-RES [11] = assay: Antiproliferative activity against human MCF7/ADR up to 25 uM cells after 48 hrs by MTT assay; assay type: functional, cell-based

T1 sequence (P08183 whole entry): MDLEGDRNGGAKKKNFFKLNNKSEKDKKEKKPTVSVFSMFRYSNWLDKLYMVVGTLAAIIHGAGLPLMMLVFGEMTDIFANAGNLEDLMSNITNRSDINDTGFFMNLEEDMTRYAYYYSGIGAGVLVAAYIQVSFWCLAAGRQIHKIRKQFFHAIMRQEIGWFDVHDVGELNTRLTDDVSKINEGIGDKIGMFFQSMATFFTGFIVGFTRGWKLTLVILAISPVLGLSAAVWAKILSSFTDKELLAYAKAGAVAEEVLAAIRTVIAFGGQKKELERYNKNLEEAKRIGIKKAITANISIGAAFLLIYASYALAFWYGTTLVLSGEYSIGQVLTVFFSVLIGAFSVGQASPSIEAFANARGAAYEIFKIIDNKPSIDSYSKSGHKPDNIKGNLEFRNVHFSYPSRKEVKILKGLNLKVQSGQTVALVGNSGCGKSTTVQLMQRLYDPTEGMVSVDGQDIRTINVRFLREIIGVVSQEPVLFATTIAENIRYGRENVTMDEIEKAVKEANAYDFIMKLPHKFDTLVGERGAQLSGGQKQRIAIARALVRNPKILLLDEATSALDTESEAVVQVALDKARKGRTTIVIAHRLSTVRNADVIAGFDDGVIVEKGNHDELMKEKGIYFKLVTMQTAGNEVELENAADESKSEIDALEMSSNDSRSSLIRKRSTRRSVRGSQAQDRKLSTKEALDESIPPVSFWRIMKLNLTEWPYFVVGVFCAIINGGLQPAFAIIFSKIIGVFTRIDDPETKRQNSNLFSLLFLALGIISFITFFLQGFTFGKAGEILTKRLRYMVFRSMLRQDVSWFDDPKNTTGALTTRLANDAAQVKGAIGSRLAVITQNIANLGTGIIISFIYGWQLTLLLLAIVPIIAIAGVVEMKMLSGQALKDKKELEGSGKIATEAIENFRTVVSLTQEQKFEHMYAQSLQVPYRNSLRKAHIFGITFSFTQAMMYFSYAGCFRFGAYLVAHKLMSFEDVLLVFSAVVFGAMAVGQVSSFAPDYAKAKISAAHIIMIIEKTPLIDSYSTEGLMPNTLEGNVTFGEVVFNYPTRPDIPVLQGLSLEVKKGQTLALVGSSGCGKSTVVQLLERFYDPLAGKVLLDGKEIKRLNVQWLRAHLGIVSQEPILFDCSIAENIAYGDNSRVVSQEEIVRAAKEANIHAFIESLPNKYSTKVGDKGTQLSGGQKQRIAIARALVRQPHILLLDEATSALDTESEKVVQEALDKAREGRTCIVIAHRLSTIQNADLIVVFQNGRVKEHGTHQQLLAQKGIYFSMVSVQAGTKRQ

Q: With `C[C@H](N)C(=O)OCCCCOc1no[n+]([O-])c1S(=O)(=O)c1ccccc1` as the molecule, how does the “inhibition (INH)” value [1] read?
A: Active

Q: With `COC(=O)c1cc(OC)c2c(c1-c1c(C(=O)NCCC(=O)OC(C)(C)CCOc3no[n+]([O-])c3S(=O)(=O)c3ccccc3)cc(OC)c3c1OCO3)OCO2` as the molecule, how does the IC50 (HepG2) read?
A: 1360 nM

Q: Which IC50 (HepG2) does the source give for `COC(=O)c1cc(OC)c2c(c1-c1c(C(=O)N[C@@H](C)C(=O)OCCCCOc3no[n+]([O-])c3S(=O)(=O)c3ccccc3)cc(OC)c3c1OCO3)OCO2` here?
A: 1210 nM

Q: And the “inhibition (INH)” value [2]?
A: Dose-dependent effect

Q: And the “inhibition (INH)” value [1]?
A: Active

Q: What about the “inhibition (INH)” value [3] of the same molecule?
A: Not Active

Q: And the Activity (NCI/ADR-RES [4])?
A: Active

Q: What about the “inhibition (INH)” value [5] of the same molecule?
A: Not Active

Q: What about the “inhibition (INH)” value [6] of the same molecule?
A: Not Active

Q: And the “inhibition (INH)” value [7]?
A: Not Active

Q: And the “inhibition (INH)” value [8]?
A: Active

Q: What about the “inhibition (INH)” value [9] of the same molecule?
A: Active

Q: What about the Activity [10] of the same molecule?
A: Active

Q: What about the Activity (MCF7) of the same molecule?
A: inactive

Q: What about the Activity (NCI/ADR-RES [11]) of the same molecule?
A: inactive

Q: For `COC(=O)c1cc(OC)c2c(c1-c1c(C(=O)NCCC(=O)OCCCCOc3no[n+]([O-])c3S(=O)(=O)c3ccccc3)cc(OC)c3c1OCO3)OCO2`, which IC50 (HepG2) is on record?
A: 1360 nM

Q: For `COC(=O)c1cc(OC)c2c(c1-c1c(C(=O)NCCC(=O)NCCOc3no[n+]([O-])c3S(=O)(=O)c3ccccc3)cc(OC)c3c1OCO3)OCO2`, which IC50 (HepG2) is on record?
A: 1250 nM

Q: With `COC(=O)c1cc(OC)c2c(c1-c1c(C(=O)NCCC(=O)OCCCOc3no[n+]([O-])c3S(=O)(=O)c3ccccc3)cc(OC)c3c1OCO3)OCO2` as the molecule, how does the IC50 (HepG2) read?
A: 1140 nM

Q: For `COC(=O)c1cc(OC)c2c(c1-c1c(C(=O)N[C@@H](C)C(=O)OCCCOc3no[n+]([O-])c3S(=O)(=O)c3ccccc3)cc(OC)c3c1OCO3)OCO2`, which IC50 (HepG2) is on record?
A: 1250 nM

Q: For `COC(=O)c1cc(OC)c2c(c1-c1c(C(=O)NCCC(=O)OCCOc3no[n+]([O-])c3S(=O)(=O)c3ccccc3)cc(OC)c3c1OCO3)OCO2`, which IC50 (HepG2) is on record?
A: 1350 nM

Q: With `O=c1[nH]cc(F)c(=O)[nH]1` [FLUOROURACIL] as the molecule, how does the IC50 (HepG2) read?
A: 15900 nM

Q: With `COC(=O)c1cc(OC)c2c(c1-c1c(C(=O)N[C@@H](C)C(=O)OCCOCCOc3no[n+]([O-])c3S(=O)(=O)c3ccccc3)cc(OC)c3c1OCO3)OCO2` as the molecule, how does the IC50 (HepG2) read?
A: 1490 nM

Q: And the “inhibition (INH)” value [2]?
A: Dose-dependent effect

Q: What about the “inhibition (INH)” value [1] of the same molecule?
A: Active

Q: And the “inhibition (INH)” value [3]?
A: Not Active

Q: And the Activity (NCI/ADR-RES [4])?
A: Active

Q: And the “inhibition (INH)” value [5]?
A: Not Active

Q: And the “inhibition (INH)” value [6]?
A: Not Active

Q: And the “inhibition (INH)” value [7]?
A: Not Active

Q: What about the “inhibition (INH)” value [8] of the same molecule?
A: Active

Q: And the “inhibition (INH)” value [9]?
A: Active

Q: And the Activity [10]?
A: Active

Q: What about the Activity (MCF7) of the same molecule?
A: inactive

Q: And the Activity (NCI/ADR-RES [11])?
A: inactive

Q: With `COC(=O)c1cc(OC)c2c(c1-c1c(C(=O)NCCC(=O)OCCOCCOc3no[n+]([O-])c3S(=O)(=O)c3ccccc3)cc(OC)c3c1OCO3)OCO2` as the molecule, how does the IC50 (HepG2) read?
A: 1880 nM

Q: For `COC(=O)c1cc(OC)c2c(c1-c1c(C(=O)NCCC(=O)OC(C)CCOc3no[n+]([O-])c3S(=O)(=O)c3ccccc3)cc(OC)c3c1OCO3)OCO2` (configuration not stated), which IC50 (HepG2) is on record?
A: 1150 nM

Q: For `C[C@H](N)C(=O)OCCOCCOc1no[n+]([O-])c1S(=O)(=O)c1ccccc1`, which “inhibition (INH)” value [1] is on record?
A: Active
